In brackets after ≈: the same amount, converted by molar mass.
What was measured:
[1] = tested on: Rattus norvegicus; test: Dose normalized AUC (0 to infinity) in Sprague-Dawley rat at 15 mg/kg administered via oral gavage as bolus dose by LC-MS/MS method; assay type: ADME, organism-based; settings: in vivo
[2] = tested on: Mus musculus; test: Dose normalized Cmax in NOD-scid IL-2Rgamma-null mouse model engrafted with Plasmodium falciparum 3D7 infected human erythrocytes at 10 mg/kg administered via oral gavage measured over 23 hrs post first dose by LC-MS/MS method; assay type: ADME, organism-based; settings: in vivo
[3] = AUC (0 to 23 hrs) in NOD-scid IL-2Rgamma-null mouse model engrafted with Plasmodium falciparum 3D7 infected human erythrocytes at 5 mg/kg administered via oral gavage by LC-MS/MS method; assay type: ADME, organism-based; parameters: dose 5 mg/kg, time < 23 hr, route oral; settings: in vivo
[4] = tested on: Mus musculus; test: Dose normalized AUC (0 to infinity) in BALB/c mouse at 5 mg/kg, iv administered as 2 mins of infusion by LC-MS/MS method; assay type: ADME, organism-based; settings: in vivo
[5] = tested on: Mus musculus; test: Dose normalized Cmax in NOD-scid IL-2Rgamma-null mouse model engrafted with Plasmodium falciparum 3D7 infected human erythrocytes at 25 mg/kg administered via oral gavage measured over 23 hrs post first dose by LC-MS/MS method; assay type: ADME, organism-based; settings: in vivo
[6] = Tmax in NOD-scid IL-2Rgamma-null mouse model engrafted with Plasmodium falciparum 3D7 infected human erythrocytes at 5 mg/kg administered via oral gavage measured over 23 hrs post first dose by LC-MS/MS method; assay type: ADME, organism-based; settings: in vivo
[7] = tested on: Mus musculus; test: Dose normalized Cmax in NOD-scid IL-2Rgamma-null mouse model engrafted with Plasmodium falciparum 3D7 infected human erythrocytes at 50 mg/kg administered via oral gavage measured over 23 hrs post first dose by LC-MS/MS method; assay type: ADME, organism-based; settings: in vivo
[8] = tested on: Mus musculus; test: Dose normalized AUC (0 to 23 hrs) in NOD-scid IL-2Rgamma-null mouse model engrafted with Plasmodium falciparum 3D7 infected human erythrocytes at 50 mg/kg administered via oral gavage by LC-MS/MS method; assay type: ADME, organism-based; settings: in vivo
[9] = Drug metabolism in iv or po dosed BALB/c mouse plasma assessed as metabolism at cyclohexane ring by LC-MS/MS method; assay type: ADME, organism-based; settings: in vivo
[10] = AUC (0 to 23 hrs) in NOD-scid IL-2Rgamma-null mouse model engrafted with Plasmodium falciparum 3D7 infected human erythrocytes at 25 mg/kg administered via oral gavage by LC-MS/MS method; assay type: ADME, organism-based; parameters: time < 23 hr, dose 25 mg/kg, route oral; settings: in vivo
[11] = tested on: Mus musculus; test: Dose normalized Cmax in NOD-scid IL-2Rgamma-null mouse model engrafted with Plasmodium falciparum 3D7 infected human erythrocytes at 5 mg/kg administered via oral gavage measured over 23 hrs post first dose by LC-MS/MS method; assay type: ADME, organism-based; settings: in vivo
[12] = Kinetic solubility of the compound in phosphate buffered saline at pH 6.5 after 20 hrs by shake flask method; assay type: physicochemical; settings: read-out: Kinetic_solubility
[13] = Kinetic solubility of the compound in HCl at pH 2 after 20 hrs by shake flask method; assay type: physicochemical; settings: read-out: Kinetic_solubility
[14] = Tmax in NOD-scid IL-2Rgamma-null mouse model engrafted with Plasmodium falciparum 3D7 infected human erythrocytes at 50 mg/kg administered via oral gavage measured over 23 hrs post first dose by LC-MS/MS method; assay type: ADME, organism-based; settings: in vivo
[15] = Cmax in BALB/c mouse at 5 mg/kg, iv administered as 2 mins of infusion by LC-MS/MS method; assay type: ADME, organism-based; parameters: dose 5 mg/kg, route intravenous; settings: in vivo
[16] = Oral bioavailability in BALB/c mouse at 20 mg/kg administered via gavage as bolus dose by LC-MS/MS method; assay type: ADME, organism-based; settings: in vivo
[17] = Cmax in NOD-scid IL-2Rgamma-null mouse model engrafted with Plasmodium falciparum 3D7 infected human erythrocytes at 25 mg/kg administered via oral gavage measured over 23 hrs post first dose by LC-MS/MS method; assay type: ADME, organism-based; parameters: dose 25 mg/kg, route oral; settings: in vivo
[18] = tested on: Mus musculus; test: Dose normalized AUC (0 to infinity) in BALB/c mouse at 20 mg/kg administered via oral gavage as bolus dose by LC-MS/MS method; assay type: ADME, organism-based; settings: in vivo
[19] = Cmax in BALB/c mouse at 20 mg/kg administered via oral gavage as bolus dose by LC-MS/MS method; assay type: ADME, organism-based; parameters: dose 20 mg/kg, route oral; settings: in vivo
[20] = Volume of distribution in BALB/c mouse at 5 mg/kg, iv administered as 2 mins of infusion by LC-MS/MS method; assay type: ADME, organism-based; settings: in vivo
[21] = Cmax in Sprague-Dawley rat at 15 mg/kg administered via oral gavage as bolus dose by LC-MS/MS method; assay type: ADME, organism-based; parameters: dose 15 mg/kg, route oral; settings: in vivo
[22] = tested on: Mus musculus; test: Dose normalized AUC (0 to 23 hrs) in NOD-scid IL-2Rgamma-null mouse model engrafted with Plasmodium falciparum 3D7 infected human erythrocytes at 25 mg/kg via oral gavage by LC-MS/MS method; assay type: ADME, organism-based; settings: in vivo
[23] = Tmax in NOD-scid IL-2Rgamma-null mouse model engrafted with Plasmodium falciparum 3D7 infected human erythrocytes at 25 mg/kg administered via oral gavage measured over 23 hrs post first dose by LC-MS/MS method; assay type: ADME, organism-based; settings: in vivo
[24] = AUC (0 to 23 hrs) in NOD-scid IL-2Rgamma-null mouse model engrafted with Plasmodium falciparum 3D7 infected human erythrocytes at 50 mg/kg administered via oral gavage by LC-MS/MS method; assay type: ADME, organism-based; parameters: dose 50 mg/kg, time < 23 hr, route oral; settings: in vivo
[25] = tested on: Mus musculus; test: Dose normalized AUC (0 to 23 hrs) in NOD-scid IL-2Rgamma-null mouse model engrafted with Plasmodium falciparum 3D7 infected human erythrocytes at 10 mg/kg administered via oral gavage by LC-MS/MS method; assay type: ADME, organism-based; settings: in vivo
[26] = AUC (0 to 23 hrs) in NOD-scid IL-2Rgamma-null mouse model engrafted with Plasmodium falciparum 3D7 infected human erythrocytes at 10 mg/kg administered via oral gavage by LC-MS/MS method; assay type: ADME, organism-based; parameters: dose 10 mg/kg, time < 23 hr, route oral; settings: in vivo
[27] = Tmax in BALB/c mouse at 20 mg/kg administered via oral gavage as bolus dose by LC-MS/MS method; assay type: ADME, organism-based; settings: in vivo
[28] = Oral bioavailability in Sprague-Dawley rat at 15 mg/kg administered via gavage as bolus dose by LC-MS/MS method; assay type: ADME, organism-based; settings: in vivo
[29] = Cmax in NOD-scid IL-2Rgamma-null mouse model engrafted with Plasmodium falciparum 3D7 infected human erythrocytes at 50 mg/kg administered via oral gavage measured over 23 hrs post first dose by LC-MS/MS method; assay type: ADME, organism-based; parameters: dose 50 mg/kg, route oral; settings: in vivo
[30] = Kinetic solubility of the compound in FaSSIF at pH 6.5 after 20 hrs by shake flask method; assay type: physicochemical; settings: read-out: Kinetic_solubility
[31] = Volume of distribution in Sprague-Dawley rat at 3 mg/kg, iv administered as 2 mins of infusion by LC-MS/MS method; assay type: ADME, organism-based; settings: in vivo
[32] = Cmax in NOD-scid IL-2Rgamma-null mouse model engrafted with Plasmodium falciparum 3D7 infected human erythrocytes at 10 mg/kg administered via oral gavage measured over 23 hrs post first dose by LC-MS/MS method; assay type: ADME, organism-based; parameters: dose 10 mg/kg, route oral; settings: in vivo
[33] = Tmax in Sprague-Dawley rat at 15 mg/kg administered via oral gavage as bolus dose by LC-MS/MS method; assay type: ADME, organism-based; settings: in vivo
[34] = tested on: Rattus norvegicus; test: Dose normalized AUC (0 to infinity) in Sprague-Dawley rat at 3 mg/kg, iv administered as 2 mins of infusion by LC-MS/MS method; assay type: ADME, organism-based; settings: in vivo
[35] = tested on: Mus musculus; test: Dose normalized AUC (0 to 23 hrs) in NOD-scid IL-2Rgamma-null mouse model engrafted with Plasmodium falciparum 3D7 infected human erythrocytes at 5 mg/kg administered via oral gavage by LC-MS/MS method; assay type: ADME, organism-based; settings: in vivo
[36] = Cmax in NOD-scid IL-2Rgamma-null mouse model engrafted with Plasmodium falciparum 3D7 infected human erythrocytes at 5 mg/kg administered via oral gavage measured over 23 hrs post first dose by LC-MS/MS method; assay type: ADME, organism-based; parameters: dose 5 mg/kg, route oral; settings: in vivo
[37] = Tmax in NOD-scid IL-2Rgamma-null mouse model engrafted with Plasmodium falciparum 3D7 infected human erythrocytes at 10 mg/kg administered via oral gavage measured over 23 hrs post first dose by LC-MS/MS method; assay type: ADME, organism-based; settings: in vivo
[38] = Cmax in Sprague-Dawley rat at 3 mg/kg, iv administered as 2 mins of infusion by LC-MS/MS method; assay type: ADME, organism-based; parameters: dose 3 mg/kg, route intravenous; settings: in vivo

AUC/dose [1]: 342 µM·min
Cmax/dose [2]: 0.093 µg/mL/mg/kg
AUC(0-t) at 23 h [3]: 4380 ng·h/mL
AUC/dose [4]: 1078 µM·min
Cmax/dose [5]: 0.167 µg/mL/mg/kg
Tmax [6]: 0.5 to 2 h
Cmax/dose [7]: 0.173 µg/mL/mg/kg
AUC/dose [8]: 1.759 µg·h/mL/mg/kg
Drug metabolism [9]: Metabolite_Notdetected
AUC(0-t) at 23 h [10]: 46200 ng·h/mL
Cmax/dose [11]: 0.086 µg/mL/mg/kg
solubility kinetic at 20 h [12]: 99 µM (≈ 39.3 µg/mL)
solubility kinetic at 20 h [13]: 199 µM (≈ 79.1 µg/mL)
Tmax [14]: 0.25 to 2 h
Cmax [15]: 5.1 µM
bioavailability [16]: 51%
Cmax [17]: 3340 ng/mL
AUC/dose [18]: 2178 µM·min
Cmax [19]: 9.6 µM
Vd [20]: 1.5 L/kg
Cmax [21]: 1200 nM
AUC/dose [22]: 2.311 µg·h/mL/mg/kg
Tmax [23]: 0.5 to 23 h
AUC(0-t) at 23 h [24]: 88000 ng·h/mL
AUC/dose [25]: 0.867 µg·h/mL/mg/kg
AUC(0-t) at 23 h [26]: 8670 ng·h/mL
Tmax [27]: 1 h
bioavailability [28]: 24%
Cmax [29]: 8650 ng/mL
solubility kinetic at 20 h [30]: 93 µM (≈ 37 µg/mL)
Vd [31]: 3 L/kg
Cmax [32]: 927 ng/mL
Tmax [33]: 3 h
AUC/dose [34]: 286 µM·min
AUC/dose [35]: 0.876 µg·h/mL/mg/kg
Cmax [36]: 431 ng/mL
Tmax [37]: 0.5 to 4 h
Cmax [38]: 2600 nM
Structure (SMILES): FC1(F)CCC(c2nc3cnc(Nc4ccc(C(F)(F)F)cn4)cc3[nH]2)CC1

Source: ChEMBL document CHEMBL4184318, “Identification of Fast-Acting 2,6-Disubstituted Imidazopyridines That Are Efficacious in the in Vivo Humanized Plasmodium falciparum NODscidIL2Rγ null Mouse Model of Malaria” (J Med Chem, 2018)
